Columns and labels:
[1] = Pharmacokinetics: clearance of p52 from the blood of mice; type: in vivo, mouse; details: LC-MS, n=6/group
Procedure: Supplemental Figure 2 . Quality analysis, in v itro potency, and clearance from the blood of mice for p52. A Analytical RP-HPLC spectrum for p52 was recorded using an Agilent 1260 Infinity system. B Spectrographic data from the analysis of purified p52 by single quadrupolar LC/MS using a Waters Mass Lynx 3100 platform. C Peptide in vitro potencies determined in CHO cells transfected with mouse GPR10 or GPR74 receptor.
For GPR74 potency was determined for peptide mediated inhibition of forskolin stimulated cAMP accumulation, as described (48). For GPR10 potency was determined in calcium mobilization assay in cells incubated with FLuo- 4AM calcium assay kit and measured on a FLIPR TETRA (Molecular Devices, Sunnyvale, CA). Shown are log(1/EC50) (1/nM) values for cAMP generation via GRP10 and GPR74 for p52, PrRP-31, and NPFF. ND- not detected. D Mice were injected with the indicated doses of p52.
Blood was drawn at the indicated times after dosing and p52 was quantified by LC-MS.
Shown are mean +/- STD; individual measurements are shown, as well; n=6/group. ND - […]
(1 picture or pasted object on this page, not shown here)

GPR147 = details: cited from earlier work
From the text: Thus, PrRP analogs like p52 might act via GPR147 to decrease food intake. It is not clear whether p52 and other PrRP analogs can suppress food intake via GRP10 and/or GPR74 in the absence of GPR147, but it would be interesting to assess this possibility, as well as potential roles for each of these rece ...

## CCCCCCCCCCCCCCCC(=O)N[C@@H](CO)C(=O)N[C@@H](CCCNC(=N)N)C(=O)N[C@H](C(=O)N[C@@H](Cc1c[nH]cn1)C(=O)N[C@@H](CCCNC(=N)N)C(=O)N[C@@H](Cc1c[nH]cn1)C(=O)N[C@@H](CO)C(=O)N[C@@H](CCCC)C(=O)N[C@@H](CCC(=O)O)C(=O)N[C@H](C(=O)N[C@@H](CCCNC(=N)N)C(=O)N[C@H](C(=O)N1CCC[C@H]1C(=O)N[C@@H](CC(=O)O)C(=O)N[C@H](C(=O)N[C@@H](CC(N)=O)C(=O)N1CCC[C@H]1C(=O)N[C@@H](C)C(=O)N[C@@H](Cc1c[nH]c2ccccc12)C(=O)N[C@@H](Cc1ccc(O)cc1)C(=O)N[C@@H](C)C(=O)N[C@@H](CO)C(=O)N[C@@H](CCCNC(=N)N)C(=O)NCC(=O)N[C@H](C(=O)N[C@@H](CCCNC(=N)N)C(=O)N1CCC[C@H]1C(=O)N[C@H](C(=O)NCC(=O)N[C@@H](CCCNC(=N)N)C(=O)N[C@@H](Cc1ccc([N+](=O)[O-])cc1)C(N)=O)C(C)C)[C@@H](C)CC)[C@@H](C)CC)[C@@H](C)O)[C@@H](C)CC)[C@@H](C)O [p52]
[1]; dose 1.5 mg/kg
  p52 detectable in the circulation for at least 4 h: not
[1]; dose 5 mg/kg
  time p52 remained detectable in the circulation: at least 4 h

## prolactin releasing peptide [PrRP]
GPR147
  affinity for GPR147: measurable (albeit low) affinity
